Assay results: US12617779B2, “Self degradation-type CDK9 inhibitor prodrug and liposome encapsulating same” (Sumitomo Pharma Co., Ltd., priority 2021, dated 2026)

Experiments:
[1] = Evaluation of conversion rate to active form in BALB/c mouse plasma (Experimental Example 3); type: in vitro ADME; details: BALB/c, mouse, 0.2 μmol/L
Procedure: (§1) For Example 1, Example 2, Example 3, Example 4, Example 5, Example 6, Comparative Example 3, Comparative Example 4, Comparative Example 6, Comparative Example 7, Comparative Example 8, Comparative Example 9, Comparative Example 10 and Comparative Example 12, the attrition rate of the test compound and the conversion rate of the test compound to Alvocidib in human plasma and BALB/c mouse plasma were calculated by the following method.
(§2) The test compound was added to human plasma or BALB/c mouse plasma at a concentration of 0.2 μmol/L, and incubated at 37° C. The peak areas of the test compound and Alvocidib in the sample were determined by LC-MS/MS after 0, 30 and 60 minutes for Example 1, Example 2, Example 3, Example 4, Example 5 and Example 6, and after 0, 60 and 120 minutes for Comparative Example 3, Comparative Example 4, Comparative Example 6, Comparative Example 7, Comparative Example 8, Comparative Example 9, Comparative Example 10 and Comparative Example 12, and the attrition rate of the test compound and the conversion rate of the test compound to Alvocidib were calculated by the following formula. Attrition rate of test compound (%):(peak area of test compound in sample/peak area of test compound in sample after 0 minute)×100 Conversion rate to Alvocidib (%):(peak area of Alvocidib in sample/peak area of Alvocidib in reaction solution containing 0.2 μmol/L Alvocidib)×100
(§3) The measurement conditions for LC-MS/MS are as follows. • HPLC: Prominence system (Shimadzu Corporation) • MS/MS: • Example 1, Example 2, Example 3, Example 4, Example 5, Example 6, Comparative Example 8 (mouse), Comparative Example 10 (mouse) and Comparative Example 12 (mouse) • QTRAP5500 (SCIEX) • Comparative Example 6, Comparative Example 7, Comparative Example 8 (human), Comparative Example 9, Comparative Example 10 (human) and Comparative Example 12 (human) • 4000 QTRAP (SCIEX) • column: • other than Example 3 and Example 4 • Cadenza CD-C18, 3 μm, 50×2 mm (Imtakt Corporation) • Example 3 and Example 4 • Kinetex C8, 2.6 μm, 50×2.1 mm (Phenomenex) • column temperature: 40° C. • mobile phase: • A: water containing 0.1% formic acid • B: acetonitrile containing 0.1% formic acid • A/B (min): • Example 1, Example 2, Example 5, Example 6, Comparative Example 8 (mouse), Comparative Example 10 (mouse) and Comparative Example 12 (mouse) • 90/10(0)→40/60(5.0)→10/90(5.1)→10/90(6.5)→90/10(6.6)→90/10(8.0) • Example 3 and Example 4 • 86/14(0)→86/14(3.5)→10/90(5.5)→10/90(6.5)→86/14(6.6)→86/14(9.5) • Comparative Example 6, Comparative Example 7, Comparative Example 8 (human), Comparative Example 9, Comparative Example 10 (human) and Comparative Example 12 (human) • 90/10(0)→10/90(2.5)→10/90(3.5)→90/10(3.6)→90/10(5.0) • flow rate: 0.4 mL/min • detection: ESI (positive mode) • injection: 1 to 5 μL

[2] = Evaluation of conversion rate to active form in human plasma (Experimental Example 3); type: in vitro ADME; details: human, 0.2 μmol/L
Procedure: as §1, §2, §3

[3] = Evaluation of conversion rate to active form in buffer solution (Experimental Example 1); type: physicochemical
Procedure: For Examples 1 to 16 and Comparative Examples 1 to 14, the attrition rate of the test compound and the conversion rate of the test compound to Alvocidib in a buffer solution were calculated by the following method.
Examples 1 to 16 and Comparative Examples 1 to 14 were each left in buffer solutions adjusted to pH 5.0, 5.5, 6.0, 6.5, 7.0 and 7.4, respectively, at a concentration of 25 umol/L at 37° C. After 0, 0.5, 1, 2 and 3 hours, the residual rates of the compounds of Examples […] and the production rate of Alvocidib were determined by HPLC.
The buffer solutions used at each pH are as follows. • pH 5.0: 50 mM citrate buffer solution (pH 5.0) • pH 5.5: 50 mM citrate buffer solution (pH 5.5) • pH 6.0: 50 mM phosphate buffer solution (pH 6.0) • pH 6.5: 50 mM phosphate buffer solution (pH 6.5) • pH 7.0: 50 mM phosphate buffer solution (pH 7.0) • pH 7.4: 50 mM phosphate buffer solution (pH 7.4)
The measurement conditions for HPLC are as follows.

CN1CC[C@H](c2c(O)cc(O)c3c(=O)cc(-c4ccccc4Cl)oc23)[C@H](OC(=O)CN)C1 [Comparative Example 8, reference compound]
Production rate (%) of Alvocidib ([1]; 0 min): 19%
Residual rate (%) of test compound ([1]; 0 min): 100%
Production rate (%) of Alvocidib ([1]; 60 min): 94%
Residual rate (%) of test compound ([1]; 60 min): 14%
Production rate (%) of Alvocidib ([1]; 120 min): 107%
Residual rate (%) of test compound ([1]; 120 min): 4%
Production rate (%) of Alvocidib ([2]; 0 min): 4%
Residual rate (%) of test compound ([2]; 0 min): 100%
Production rate (%) of Alvocidib ([2]; 60 min): 12%
Residual rate (%) of test compound ([2]; 60 min): 87%
Production rate (%) of Alvocidib ([2]; 120 min): 16%
Residual rate (%) of test compound ([2]; 120 min): 94%
Production rate of Alvocidib ([3]; pH5.0, 0 hr): 16.1%
Residual rate ([3]; pH5.0, 0 hr): 83.4%
Stability in buffer solution at pH 5 ([3]; pH 5, 37° C., up to 2 or 3 hours): unstable
Production rate of Alvocidib ([3]; pH5.0, 0.5 hr): 17.7%
Residual rate ([3]; pH5.0, 0.5 hr): 81.9%
Production rate of Alvocidib ([3]; pH5.0, 1 hr): 19.2%
Residual rate ([3]; pH5.0, 1 hr): 80.4%
Production rate of Alvocidib ([3]; pH5.0, 2 hr): 21.6%
Residual rate ([3]; pH5.0, 2 hr): 78.1%
Production rate of Alvocidib ([3]; pH5.0, 3 hr): 25.7%
Residual rate ([3]; pH5.0, 3 hr): 73.9%
Production rate of Alvocidib ([3]; pH5.5, 0 hr): 16.1%
Residual rate ([3]; pH5.5, 0 hr): 83.4%
Production rate of Alvocidib ([3]; pH5.5, 0.5 hr): 18.8%
Residual rate ([3]; pH5.5, 0.5 hr): 80.7%
Production rate of Alvocidib ([3]; pH5.5, 1 hr): 21.4%
Residual rate ([3]; pH5.5, 1 hr): 78.3%
Production rate of Alvocidib ([3]; pH5.5, 2 hr): 26.2%
Residual rate ([3]; pH5.5, 2 hr): 73.5%
Production rate of Alvocidib ([3]; pH5.5, 3 hr): 32.0%
Residual rate ([3]; pH5.5, 3 hr): 67.6%
Production rate of Alvocidib ([3]; pH6.0, 0 hr): 16.3%
Residual rate ([3]; pH6.0, 0 hr): 83.5%
Production rate of Alvocidib ([3]; pH6.0, 0.5 hr): 27.2%
Residual rate ([3]; pH6.0, 0.5 hr): 72.6%
Production rate of Alvocidib ([3]; pH6.0, 1 hr): 36.3%
Residual rate ([3]; pH6.0, 1 hr): 63.5%
Production rate of Alvocidib ([3]; pH6.0, 2 hr): 62.9%
Residual rate ([3]; pH6.0, 2 hr): 36.7%
Production rate of Alvocidib ([3]; pH6.0, 3 hr): 65.4%
Residual rate ([3]; pH6.0, 3 hr): 34.5%
Production rate of Alvocidib ([3]; pH6.5, 0 hr): 16.5%
Residual rate ([3]; pH6.5, 0 hr): 83.3%
Production rate of Alvocidib ([3]; pH6.5, 0.5 hr): 33.1%
Residual rate ([3]; pH6.5, 0.5 hr): 66.7%
Production rate of Alvocidib ([3]; pH6.5, 1 hr): 45.9%
Residual rate ([3]; pH6.5, 1 hr): 53.9%
Production rate of Alvocidib ([3]; pH6.5, 2 hr): 54.4%
Residual rate ([3]; pH6.5, 2 hr): 45.2%
Production rate of Alvocidib ([3]; pH6.5, 3 hr): 79.4%
Residual rate ([3]; pH6.5, 3 hr): 20.4%
Production rate of Alvocidib ([3]; pH7.0, 0 hr): 16.6%
Residual rate ([3]; pH7.0, 0 hr): 83.1%
Production rate of Alvocidib ([3]; pH7.0, 0.5 hr): 35.4%
Residual rate ([3]; pH7.0, 0.5 hr): 64.4%
Production rate of Alvocidib ([3]; pH7.0, 1 hr): 49.3%
Residual rate ([3]; pH7.0, 1 hr): 50.5%
Production rate of Alvocidib ([3]; pH7.0, 2 hr): 67.6%
Residual rate ([3]; pH7.0, 2 hr): 32.1%
Production rate of Alvocidib ([3]; pH7.0, 3 hr): 83.5%
Residual rate ([3]; pH7.0, 3 hr): 16.4%
Production rate of Alvocidib ([3]; pH7.4, 0 hr): 16.7%
Residual rate ([3]; pH7.4, 0 hr): 83.1%
Production rate of Alvocidib ([3]; pH7.4, 0.5 hr): 34.2%
Residual rate ([3]; pH7.4, 0.5 hr): 65.6%
Production rate of Alvocidib ([3]; pH7.4, 1 hr): 47.4%
Residual rate ([3]; pH7.4, 1 hr): 52.4%
Production rate of Alvocidib ([3]; pH7.4, 2 hr): 67.0%
Residual rate ([3]; pH7.4, 2 hr): 32.7%
Production rate of Alvocidib ([3]; pH7.4, 3 hr): 81.4%
Residual rate ([3]; pH7.4, 3 hr): 18.5%
